Experimental data as given in article PMC10611828 (European Journal of Nuclear Medicine and Molecular Imaging, 2023).

Legend:
[1] = parameters: method as in PMID 35027371, PMID 28644732; settings: compared with RM2; cited from earlier work
[2] = Stability in mouse serum at 37 °C (radio-HPLC); type: in vitro ADME; settings: 0 h
Description: (§1) The ^177Lu-labeled peptides were incubated in 300-μL phosphate buffered saline (PBS; Gibco, ThermoFisher, The Netherlands) at 37 °C, and their stability was verified after 1, 4, 24, 48, and 72 h by radio-HPLC (Supplementary Fig. 2). The stability in serum was determined by incubating the radiolabeled compounds into 300 μL of mouse serum (Invitrogen, USA) or human serum (Sigma Aldrich, USA) at 37 °C (Supplementary Fig. 3, 4). At each time point post-incubation, 35 μL of the mixture was added to an Eppendorf tube, and the proteins were precipitated by adding an equal volume of acetonitrile. The tubes were centrifuged at 16,000 rpm, 4 °C for 20 min, and the stability was monitored by radio-HPLC, expressed as the RCP at the different time points.

[3] = system: PC-3 cells; test: Uptake and specificity in PC-3 cells; type: cell-based, human; settings: 1 h 37 °C
Description: PC-3 cells were seeded at 2.5 × 10^5 cells/well into 12 well plates 18–24 h prior to the experiment. […] Hereafter, cells were washed twice with PBS and subsequently lysed with 0.1 M NaOH for 20 min at room temperature (RT). The cell lysates were collected and measured using a gamma counter (1480 WIZARD automatic γ-counter, PerkinElmer, The Netherlands). […] Hereafter, cells were washed twice with cold PBS and lysed with 0.1 M NaOH for 20 min at RT. The cell lysates were collected and measured to determine the amount of radioactivity in a gamma counter. To correct for cell density, cells from two separate wells were counted (Countess counter, Invitrogen, The Netherlands), and data was expressed as percentage of added dose (AD) per 2.5 × 10^5 cells.

[4] = Stability in PBS at 37 °C (radio-HPLC); type: physicochemical
Description: as §1

[5] = Stability in human serum at 37 °C (radio-HPLC); type: in vitro ADME; settings: 0 h
Description: as §1

[6] = parameters: method as in PMID 31482426; settings: all patients; cited from earlier work

| intact radiolabeled ligand (RCP) [2] | intact radiolabeled ligand (RCP) ([4]; 0 h) | intact radiolabeled ligand (RCP) ([4]; 1 h) | intact radiolabeled ligand (RCP) ([4]; 4 h) | intact radiolabeled ligand (RCP) ([4]; 24 h) | intact radiolabeled ligand (RCP) ([4]; 48 h) | intact radiolabeled ligand (RCP) ([4]; 72 h) | intact radiolabeled ligand (RCP) [5] | Structure (SMILES) | lipophilicity (structure and LogD) [1] | uptake in the presence of Tyr^4-BBN ([3]; 10^-9 M + 10^-6 M Tyr^4-BBN) | uptake ([3]; 10^-9 M, per 2.5 × 10^5 cells) | tolerability in patients [6] |
| --- | --- | --- | --- | --- | --- | --- | --- | --- | --- | --- | --- | --- |
| – | – | – | – | – | – | – | – | CC(C)CC(CC(C)C)NC(=O)[C@H](Cc1cnc[nH]1)NC(=O)CNC(=O)[C@@H](NC(=O)[C@H](C)NC(=O)[C@H](Cc1c[nH]c2ccccc12)NC(=O)[C@H](CCC(N)=O)NC(=O)[C@@H](Cc1ccccc1)NC(=O)COCC(=O)Nc1ccc(CNC(=O)CN2CCN(CC(=O)O)CCN(CC(=O)O)CCN(CC(=O)O)CC2)cc1)C(C)C [NeoB, DOTA-pADA-D-Phe-Gln-Trp-Ala-Val-Gly-His-NH-CH[CH2-CH(CH3)2]2] | more lipophilic | – | – | – |
| 97.4 ± 0.3% | 97.4 ± 0.3% | 97.8 ± 0.4% | 96.7 ± 0.5% | 95.6 ± 0.3% | 87.6 ± 0.6% | 80.4 ± 0.8% | 97.4 ± 0.3% | CC(C)C[C@H](NC(=O)C[C@H](O)[C@H](CC(C)C)NC(=O)[C@H](Cc1c[nH]cn1)NC(=O)CNC(=O)[C@@H](NC(=O)[C@H](C)NC(=O)[C@H](Cc1c[nH]c2ccccc12)NC(=O)[C@H](CCC(N)=O)NC(=O)[C@@H](Cc1ccccc1)NC(=O)CN1CCC(NC(=O)CN2CCN(CC(=O)O)CCN(CC(=O)O)CCN(CC(=O)O)CC2)CC1)C(C)C)C(N)=O [[^177Lu]Lu-RM2] [metal not drawn] | – | < 1 % AD | 10.96 ± 3.46 % AD | well tolerated |
